We go through 19 compounds from article PMC12079444, “Antagonist Targeting the Species‐Specific Fatty Acid Dehydrogenase/Isomerase FabX for Anti‐H. pylori Infection” (Advanced Science, 2025).

The structures appear in SMILES notation.

Experiment [1] deals with T1, FabX (Helicobacter pylori, UniProt O25465).
T1 construct: gene HP_0773; recombinant from pQE2 vector in E. coli BL21(DE3) Rosetta, Ni-NTA, HiTrap-SP, Superdex75; FMN and [4Fe-4S] cofactors
T1 sequence (O25465 1-363): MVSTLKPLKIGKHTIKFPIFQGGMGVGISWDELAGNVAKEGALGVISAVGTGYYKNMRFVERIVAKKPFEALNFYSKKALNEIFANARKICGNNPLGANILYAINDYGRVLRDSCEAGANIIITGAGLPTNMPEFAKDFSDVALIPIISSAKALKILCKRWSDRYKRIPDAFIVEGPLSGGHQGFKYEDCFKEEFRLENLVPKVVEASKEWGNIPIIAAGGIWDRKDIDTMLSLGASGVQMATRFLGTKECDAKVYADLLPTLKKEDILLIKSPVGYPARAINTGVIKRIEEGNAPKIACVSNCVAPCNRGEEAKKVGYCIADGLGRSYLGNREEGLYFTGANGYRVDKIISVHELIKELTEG
The experiment is described as follows: biochemical. Further details: FabX-FabI enzyme-coupled assay, NADH consumption read-out of FabX inhibition. The following applies: for inhibition at 10 µM: read-out: Inhibition (%) 10 μM; for inhibition at 1 µM: read-out: Inhibition (%) 1 μM. The text has this:
To discover small molecule inhibitors targeting FabX, we performed protein thermal shift assay (PTSA) based high‐throughput screening against an in‐house chemical library of 11000 small molecule compounds, and established a multienzymatic cascade reaction system by incorporating the enoyl acyl carrier protein reductase FabI from H. pylori into the hit validation system, where FabI catalyzes the reduction of FabX catalytic product enoyl‐ACP in the fourth step of the elongation cycle, accompanying the elimination of NADH (Figure 2A,B). […] Subsequently, the inhibitory activities of these derivatives at 10 × 10^−6 and 1 × 10^−6 M were evaluated, and the structure–activity relationship (SAR) was analyzed (Figure S2, Supporting Information). In the first round of SAR, we briefly examined the influence of the substituents’ positions (C3 and C4), the electronic effects, and the polarity in the A moiety. We synthesized compounds 1a‐1l and evaluated their enzymatic activities (Table S1, Supporting Information). […] In particular, 3‐CN (1e) and 3‐COOH (1i) enhanced the inhibitory activity. We speculate that these two groups may act as hydrogen bond acceptors, forming hydrogen bonds with FabX and enhancing the interaction. We then retained the 3‐CN group in the A moiety and optimized the B moiety to investigate the 2,4‐disubstitution by synthesizing 8a‐8c (Figure 3). […] [picture] Figure S1. Schematic diagram of Type-II fatty acid biosynthesis pathway (FAS-II) in Helicobacter pylori. FabX (red sphere) catalyzes the dehydrogenation and isomerization of the saturated acyl group on ACP (the fifth step in the elongation cycle) for cis-double bond introduction and UFA synthesis. The black and blue curves indicate the SFA and UFA synthesis processes, respectively, while the blue dashes indicate the absence of the conventional fabA gene in the genome of H. pylori. [picture] Figure S2. Bioactivity evaluation of FBX-1 derivatives at 10 μM and 1 μM in the FabX-FabI enzyme-coupled assay. [picture] Figure S3. Overexpression of FabX in strain BHKS211. BHKS210 (NSH57/Vec) and BHKS211 (NSH57/fabX) were cultured in BHI broth supplemented with 10% FCS to an OD600 of 0.3 and then harvested. RNA isolation, reverse transcription, and real-time PCR were performed as described in the EXPERIMENTAL METHODS section. The relative levels of fabX expression in BHKS211 compared to the control strain BHKS210 are represented. The data are the averages ± standard deviations from three independent experiments.

The target in experiment [2] is T1, FabX. The experiment is described as follows: FabX-FabI coupled assay, NADH absorbance […] nm. It counts as biochemical.

As for `O=S(=O)(Nc1cccc(I)c1)c1cccnc1Nc1ccc(Cl)cc1` [1c, 2-((4-chlorophenyl)amino)-N-(3-iodophenyl)pyridine-3-sulfonamide], the inhibition at 10 µM in experiment [1] came to 23%.

As to `N#Cc1cccc(NS(=O)(=O)c2ccncc2Nc2ccc(Cl)cc2Cl)c1` [11a, N-(3-cyanophenyl)-3-((2,4-dichlorophenyl)amino)pyridine-4-sulfonamide], in experiment [1], the IC50 stood at 480 ± 61 nM, the inhibition at 1 µM is 100% and the inhibition at 10 µM amounted to 100%. Regarding `O=S(=O)(Nc1ccc(F)nc1)c1cccnc1Nc1ccc(Cl)cc1` [1k], the inhibition at 10 µM in experiment [1] was found to be 12%.

In the case of `O=S(=O)(NCc1ccccc1)c1cccnc1Nc1ccc(Cl)cc1` [1l], in experiment [1], the inhibition at 1 µM was determined as 12% and the inhibition at 10 µM came to 25%. Take `N#Cc1cccc(NS(=O)(=O)c2ncccc2Nc2ccc(Cl)cc2Cl)c1` [11c, N-(3-cyanophenyl)-3-((2,4-dichlorophenyl)amino)pyridine-2-sulfonamide]: in experiment [1], the inhibition at 1 µM turned out to be 17% and the inhibition at 10 µM is 60%. In the same order, the values of `N#Cc1cccc(NS(=O)(=O)c2cccnc2Nc2ccc(Cl)cc2)c1` [1e] are 31% and 88%.

For `COc1ccc(NS(=O)(=O)c2cccnc2Nc2ccc(Cl)cc2)cc1` [1f], in experiment [1], the inhibition at 10 µM amounted to 23%. Compound `O=S(=O)(Nc1ccc(F)cc1)c1cccnc1Nc1ccc(Cl)cc1` [FBX-1] came in with an IC50 in experiment [2] of 9700 ± 1000 nM.

The compound `O=S(=O)(Nc1cccc(O)c1)c1cccnc1Nc1ccc(Cl)cc1Cl` [8n] yielded an IC50 in experiment [2] of 945 ± 111 nM. Regarding `N#Cc1cccc(NS(=O)(=O)c2ccccc2Nc2ccc(Cl)cc2Cl)c1` [11d, N-(3-cyanophenyl)-2-((2,4-dichlorophenyl)amino)benzenesulfonamide], in experiment [1], the IC50 stood at 2380 ± 225 nM, the inhibition at 1 µM came to 60% and the inhibition at 10 µM was determined as 94%. As for `COc1cccc(NS(=O)(=O)c2cccnc2Nc2ccc(Cl)cc2)c1` [1g], the inhibition at 10 µM in experiment [1] amounted to 21%. Still for that read-out and setting: the same measure for `C#Cc1cccc(NS(=O)(=O)c2cccnc2Nc2ccc(Cl)cc2)c1` [1j]: 63%. Turning to `O=c1[nH]c(-c2cccc(NS(=O)(=O)c3cccnc3Nc3ccc(Cl)cc3Cl)c2)no1` [8k], the IC50 in experiment [2] was determined as 665 ± 85 nM.

On to `N#Cc1ccc(NS(=O)(=O)c2cccnc2Nc2ccc(Cl)cc2)cc1` [1d, 2-((4-chlorophenyl)amino)-N-(4-cyanophenyl)pyridine-3-sulfonamide], for which the inhibition at 10 µM in experiment [1] came to 12%. In turn, `N#Cc1cccc(NS(=O)(=O)c2cccnc2Nc2ccc(Cl)cc2Cl)c1` [8c] displayed an IC50 in experiment [2] of 625 ± 82 nM. In experiment [1], the inhibition at 1 µM was determined as 77% and the inhibition at 10 µM worked out at 100%. With `CCOC(=O)c1cccc(NS(=O)(=O)c2cccnc2Nc2ccc(Cl)cc2)c1` [1h], in experiment [1], the inhibition at 10 µM was determined as 35%. In the case of `O=C(O)c1cccc(NS(=O)(=O)c2cccnc2Nc2ccc(Cl)cc2)c1` [1i], in experiment [1], the inhibition at 1 µM was determined as 19% and the inhibition at 10 µM turned out to be 65%. For the compound `O=S(=O)(Nc1cccc(-c2nnn[nH]2)c1)c1cccnc1Nc1ccc(Cl)cc1Cl` [8l], 904 ± 177 nM corresponded to half-maximal inhibition in experiment [2] (IC50). Compound `O=C1COc2ccc(NS(=O)(=O)c3cccnc3Nc3ccc(Cl)cc3Cl)cc2N1` [8m] had an IC50 in experiment [2] of 249 ± 38 nM.

Usually inhibition stands for how much of the control response was suppressed. Usually IC50 stands for the concentration that inhibits the measured activity by half.
